Measurements: patent US10399985B2, “(Hetero)aryl imidazoles/pyrazoles for treatment of neurological disorders” (Hoffmann-La Roche Inc., priority 2014, dated 2019)
pIC50: −log10 of the molar value.

target: human PDE10A (Homo sapiens (Human), UniProt Q9Y233); test: human PDE10A full length Scintillation Proximity Assay (SPA); format: biochemical; settings: 50 nM cGMP and 50 nM [3H]-cGMP, 20 minutes at room temperature
Procedure: The following test was carried out in order to determine the activity of the compounds of the present invention. PDE10 activity of the compounds of the present invention was determined using a Scintillation Proximity Assay (SPA)-based method similar to the one previously described (Fawcett, L. et al., ProcNatl Acad Sci USA (2000) 97(7):3702-3707).
The human PDE10A full length assay was performed in 96-well micro titer plates. The reaction mixture of 50 μl contained 20 mM HEPES pH=7.5/10 mM MgCl2/0.05 mg/ml BSA (Sigma cat. # A-7906), 50 nM cGMP (Sigma, cat. # G6129) and 50 nM [3H]-cGMP (GE Healthcare, cat. # TRK392 S. A. 13.2 Ci/mmol), 3.75 ng/well PDE10A enzyme (Enzo Life Science, Lausen, Switzerland cat # SE-534) with or without a specific test compound. A range of concentrations of the potential inhibitor was used to generate data for calculating the concentration of inhibitor resulting in 50% of the effect (e.g. IC50, the concentration of the competitor inhibiting PDE10A activity by 50%). Non-specific activity was tested without the enzyme. The reaction was initiated by the addition of the substrate solution (cGMP and [3H]-cGMP) and allowed to progress for 20 minutes at room temperature. The reaction was terminated by adding 25 μl of YSi-SPA scintillation beads (GE Healthcare, cat. # RPNQ0150) in 18 mM zinc sulphate solution (stop reagent). After 1 h under shaking, the plate was centrifuged one minute at 170 g to allow beads to settle. Afterwards, radioactive counts were measured on a Perkin Elmer TopCount Scintillation plate reader.

human PDE10A, sequence (Q9Y233 other isoform, or with tags, fused parts or gaps): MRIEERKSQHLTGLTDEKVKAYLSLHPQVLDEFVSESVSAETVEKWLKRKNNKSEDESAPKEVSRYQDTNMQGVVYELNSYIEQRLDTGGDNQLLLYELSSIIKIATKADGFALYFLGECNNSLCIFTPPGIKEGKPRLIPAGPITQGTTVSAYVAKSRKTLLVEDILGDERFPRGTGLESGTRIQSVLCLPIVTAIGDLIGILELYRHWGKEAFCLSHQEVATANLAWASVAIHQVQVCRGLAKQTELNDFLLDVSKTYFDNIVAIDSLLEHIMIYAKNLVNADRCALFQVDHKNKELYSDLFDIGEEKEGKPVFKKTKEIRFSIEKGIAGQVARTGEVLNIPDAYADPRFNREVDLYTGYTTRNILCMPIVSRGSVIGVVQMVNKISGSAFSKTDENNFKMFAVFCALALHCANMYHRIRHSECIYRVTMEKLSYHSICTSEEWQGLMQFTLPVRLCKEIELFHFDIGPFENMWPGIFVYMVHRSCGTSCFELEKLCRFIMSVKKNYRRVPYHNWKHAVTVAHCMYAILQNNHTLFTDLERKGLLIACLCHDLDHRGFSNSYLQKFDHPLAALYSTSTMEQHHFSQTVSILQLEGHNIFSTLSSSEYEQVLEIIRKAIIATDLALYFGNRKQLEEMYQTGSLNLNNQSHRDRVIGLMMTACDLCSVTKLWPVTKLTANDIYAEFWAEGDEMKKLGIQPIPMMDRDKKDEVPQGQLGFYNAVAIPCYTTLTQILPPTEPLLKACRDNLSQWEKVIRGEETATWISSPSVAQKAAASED

SMILES | pIC50
CCc1nc2ccc(OCc3nc(-c4ccccc4)cn3C)nn2c1C [Example 35, 2-Ethyl-3-methyl-6-((1-methyl-4-phenyl-1H-imidazol-2-yl)methoxy)imidazo[1,2-b]pyridazine] | 6.58
Cc1c(C(F)(F)F)nc2ccc(OCc3nc(-c4ccccc4)cn3C)nn12 [Example 36, 3-Methyl-6-((1-methyl-4-phenyl-1H-imidazol-2-yl)methoxy)-2-(trifluoromethyl)imidazo[1,2-b]pyridazine] | 7.46
Cc1c(C(N)=O)nc2ccc(OCc3nc(-c4ccccc4)cn3C)nn12 [Example 39, 3-Methyl-6-((1-methyl-4-phenyl-1H-imidazol-2-yl)methoxy)imidazo[1,2-b]pyridazine-2-carboxamide] | 6.94
Cc1c(C#N)nc2ccc(OCc3nc(-c4ccccc4)cn3C)nn12 [Example 40, 3-Methyl-6-((1-methyl-4-phenyl-1H-imidazol-2-yl)methoxy)imidazo[1,2-b]pyridazine-2-carbonitrile] | 7.63
Cn1cc(-c2ccccc2)nc1COc1ccc2nc(C3CC3)c(CO)n2n1 [Example 43, (2-Cyclopropyl-6-((1-methyl-4-phenyl-1H-imidazol-2-yl)methoxy)imidazo[1,2-b]pyridazin-3-yl)methanol] | 6.78

More lines, now with the values ahead:

pIC50 | SMILES
6.44 | Cc1c(CO)nc2ccc(OCc3nc(-c4ccccc4)cn3C)nn12 [Example 42, (3-Methyl-6-((1-methyl-4-phenyl-1H-imidazol-2-yl)methoxy)imidazo[1,2-b]pyridazin-2-yl)methanol]
6.48 | Cn1cc(-c2ccccc2)nc1COc1ccc2nc(C(F)(F)F)cn2n1 [Example 45, 6-((1-Methyl-4-phenyl-1H-imidazol-2-yl)methoxy)-2-(trifluoromethyl)imidazo[1,2-b]pyridazine]
6.77 | Cn1cc(-c2ccccc2)nc1COc1ccc2nc(C3CC3)cn2n1 [Example 37, 2-Cyclopropyl-6-((1-methyl-4-phenyl-1H-imidazol-2-yl)methoxy)imidazo[1,2-b]pyridazine]
6.88 | Cc1cn2nc(OCc3nc(-c4ccccc4)cn3C)ccc2n1 [Example 38, 2-Methyl-6-((1-methyl-4-phenyl-1H-imidazol-2-yl)methoxy)imidazo[1,2-b]pyridazine]
7.33 | Cn1cc(-c2ccccc2)nc1COc1ccc2nc3c(n2n1)CCC3 [Example 44, 2-[(1-Methyl-4-phenyl-imidazol-2-yl)methoxy]-7,8-dihydro-6H-cyclopenta[1,2]imidazo[3,4-c]pyridazine]
7.93 | COc1cc(OCc2nc(-c3ccccc3)cn2C)nn2c(C)c(C(F)(F)F)nc12 [Example 41, 8-Methoxy-3-methyl-6-((1-methyl-4-phenyl-1H-imidazol-2-yl)methoxy)-2-(trifluoromethyl)imidazo[1,2-b]pyridazine]
8.47 | Cc1nn2ccc(OCc3nc(-c4ccccc4)cn3C)nc2c1C [Example 46, 2,3-Dimethyl-5-((1-methyl-4-phenyl-1H-imidazol-2-yl)methoxy)pyrazolo[1,5-a]pyrimidine]

test system: rats; test: not given; settings: sub-chronic treatment with PCP; cited from earlier work

SMILES | deficits in the extra-dimensional shift learning
COc1ccc(Cc2nccc3cc(OC)c(OC)cc23)cc1OC [papaverine, Papaverine] | attenuate the deficits
